Results reported in the NIST ThermoML archive (doi:10.1021/je200813q).
Numbers after ± are expanded uncertainties.

Experiment: mn = molality of the nth substance listed, in mol/kg
Conditions: 101.3 kPa, Liquid, Buoyancy - hydrostatic balance with magnetic suspension - one sinker

O=S(=O)([O-])[O-].[O]=[V+2] [oxovanadium(IV) sulfate] + O
mass density [kg/m3]
Conditions	283.15 K	293.15 K	298.15 K	303.15 K	313.15 K	323.15 K
m1 = 0.5	1074.6 ± 0.2	1072.5 ± 0.2	1070.7 ± 0.2	1068 ± 0.2	1065 ± 0.2	1060.4 ± 0.2
m1 = 0.8	1117.6 ± 0.3	1114.8 ± 0.3	1113 ± 0.3	1110.7 ± 0.3	1106.6 ± 0.3	1101.7 ± 0.3
m1 = 1	1144.9 ± 0.3	1141.9 ± 0.3	1139.8 ± 0.3	1137.6 ± 0.3	1133.3 ± 0.3	1128.4 ± 0.3
m1 = 1.2	1171.8 ± 0.3	1169.5 ± 0.3	1167.2 ± 0.3	1164.6 ± 0.3	1159.9 ± 0.3	1154.7 ± 0.3
m1 = 1.5	1211.3 ± 0.3	1207.8 ± 0.3	1205.3 ± 0.3	1202.7 ± 0.3	1198.3 ± 0.3	1192.4 ± 0.3
m1 = 1.8	1249.6 ± 0.4	1245.6 ± 0.3	1242.9 ± 0.3	1240.4 ± 0.3	1235.3 ± 0.3	1229.9 ± 0.3
m1 = 2	1274.1 ± 0.4	1270 ± 0.4	1267.4 ± 0.4	1264.7 ± 0.4	1259.6 ± 0.4	1253.9 ± 0.4
m1 = 2.2	1298.2 ± 0.4	1293.9 ± 0.4	1291.2 ± 0.4	1288.8 ± 0.4	1283.4 ± 0.4	1277.6 ± 0.4
m1 = 2.5	1333.7 ± 0.5	1329.3 ± 0.5	1326.5 ± 0.5	1323.9 ± 0.5	1318.5 ± 0.4	1312.7 ± 0.4
m1 = 2.8	1367.1 ± 0.5	1362.8 ± 0.5	1359.8 ± 0.5	1357.2 ± 0.5	1351.6 ± 0.5	1345.6 ± 0.5
m1 = 3	1389.5 ± 0.6	1384.6 ± 0.6	1381.3 ± 0.6	1378.8 ± 0.6	1373.4 ± 0.5	1367.5 ± 0.5
